Literature values, collected in patent US9006451B1, “2-anilinonicotinyl based chalcones useful as potential anticancer agents and process for preparation thereof” (Council of Scientific and Industrial Research, priority 2013, dated 2015).
pIC50: −log10 of the molar value.

Test system: breast cancer cell line MCF7
Conditions: cited from earlier work

## COc1ccc(C(=O)/C=C/c2c(OC)cccc2OC)c(OC)c1 [B, (E)-1-(2,4-dimethoxyphenyl)-3-(2,6-dimethoxyphenyl)prop-2-en-1-one]
J. Med. Chem. 2008, 51, 2307-2310, read-out: IC50 against breast cancer cell line MCF7
  pIC50: 4.12
Known chalcone, literature value
  GI50: 75 µM
